Source: ChEMBL document CHEMBL5120754, “Structural modification aimed for improving solubility of lead compounds in early phase drug discovery” (Bioorg Med Chem, 2022)
Values after ≈ are worked out from the molar mass of the structure shown.

Assays:
physchem = conditions: buffer
[1] = target: Prostaglandin E2 receptor EP1 subtype (Homo sapiens, UniProt P34995); test: Antagonist activity at EP1 receptor (unknown origin); format: functional
Heat shock protein HSP90 = Heat shock protein HSP90 (Homo sapiens, UniProt P07900+P08238); test: Inhibition of HSP90 (unknown origin); format: protein assay
HCT-116 = test: Antiproliferative activity against human HCT-116 cells; format: functional, cell-based
[2] = target: Tyrosine-protein kinase ABL1 (Homo sapiens, UniProt P00519); test: Inhibition of Abl kinase (unknown origin)
[3] = Permeability of compound in human Caco-2 cells; format: ADME, cell-based; conditions: read-out: permeability
[4] = target: Proto-oncogene tyrosine-protein kinase Src (Homo sapiens, UniProt P12931); test: Inhibition of Src (unknown origin)
NCI-N87 = test: cells; conditions: Homo sapiens, NCI-N87, 96 h
[5] = Inhibition of Integrin alpha-L (unknown origin)/Intercellular adhesion molecule 1 (unknown origin) interaction; design: species or system Homo sapiens
Plasmodium falciparum [6] = test: Antimalarial activity against Plasmodium falciparum 3D7; format: functional, organism-based
[7] = Antagonist activity at GlyN receptor (unknown origin); design: species or system Homo sapiens
MIA PaCa-2 = test: Antiproliferative activity against human MIA PaCa-2 cells; format: functional, cell-based
[8] = Inhibition of PI3K (unknown origin) activity; design: species or system Homo sapiens
[9] = target: Voltage-dependent T-type calcium channel subunit alpha-1I (Homo sapiens, UniProt Q9P0X4); test: Inhibition of Cav3.3 subunit 1alpha-l(unknown origin) stably transfected in HEK293 cells measured by FLIPR assay; format: cell-based
[10] = Metabolic stability in human liver microsomes assessed as intrinsic clearance at 1 uM and measured by LC/MS-MS analysis; format: ADME, Microsome; conditions: read-out: CLH
[11] = target: Oxysterols receptor LXR-beta (Mus musculus, UniProt Q60644); test: Agonist activity at mouse LXRbeta
[12] = buffer
[13] = Inhibition of rabbit aortic ACAT; design: species or system Oryctolagus cuniculus
[14] = target: Retinoic acid receptor beta (Homo sapiens, UniProt P10826); test: Agonist activity at human RAR-beta2 receptor
Plasmodium falciparum [15] = test: Antimalarial activity against blood stage chloroquine-sensitive Plasmodium falciparum 3D7 infected in human red blood cells measured by [3H]hypoxanthine incorporation assay; format: functional, organism-based, RBC; conditions: 3D7, Erythrocyte
CDK2/Cyclin A2 = CDK2/Cyclin A2 (Homo sapiens, UniProt P24941); test: Inhibition of CDK2/Cyclin A (unknown origin); format: protein-complex assay
[16] = target: T1, Glucose-dependent insulinotropic receptor (Homo sapiens, UniProt Q8TDV5); test: Agonist activity at human GPR119; format: functional
T1 sequence (Q8TDV5 whole entry): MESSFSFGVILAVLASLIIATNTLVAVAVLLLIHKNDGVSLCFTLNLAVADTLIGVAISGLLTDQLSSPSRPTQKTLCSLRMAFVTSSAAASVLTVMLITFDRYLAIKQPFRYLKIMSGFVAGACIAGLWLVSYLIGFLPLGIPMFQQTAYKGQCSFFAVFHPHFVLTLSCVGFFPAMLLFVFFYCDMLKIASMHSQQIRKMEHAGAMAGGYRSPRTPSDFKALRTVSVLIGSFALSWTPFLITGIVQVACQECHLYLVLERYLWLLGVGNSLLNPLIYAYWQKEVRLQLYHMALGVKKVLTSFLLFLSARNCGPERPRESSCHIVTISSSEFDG

Sequence of Proto-oncogene tyrosine-protein kinase Src (P12931 2-536 limits assumed): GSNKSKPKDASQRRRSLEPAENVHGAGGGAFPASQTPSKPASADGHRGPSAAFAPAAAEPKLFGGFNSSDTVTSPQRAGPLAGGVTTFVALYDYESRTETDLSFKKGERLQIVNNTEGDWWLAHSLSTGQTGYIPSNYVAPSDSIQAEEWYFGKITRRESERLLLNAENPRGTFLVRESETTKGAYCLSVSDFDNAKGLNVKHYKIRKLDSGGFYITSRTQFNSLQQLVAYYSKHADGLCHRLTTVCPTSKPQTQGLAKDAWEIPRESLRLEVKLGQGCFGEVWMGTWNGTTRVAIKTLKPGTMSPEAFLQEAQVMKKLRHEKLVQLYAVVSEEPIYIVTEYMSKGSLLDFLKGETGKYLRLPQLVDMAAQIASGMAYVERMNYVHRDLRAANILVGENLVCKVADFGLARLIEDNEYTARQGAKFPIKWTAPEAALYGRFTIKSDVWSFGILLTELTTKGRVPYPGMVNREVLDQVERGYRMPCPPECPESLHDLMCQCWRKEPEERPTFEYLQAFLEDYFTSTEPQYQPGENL
Sequence of Prostaglandin E2 receptor EP1 subtype (P34995 whole entry): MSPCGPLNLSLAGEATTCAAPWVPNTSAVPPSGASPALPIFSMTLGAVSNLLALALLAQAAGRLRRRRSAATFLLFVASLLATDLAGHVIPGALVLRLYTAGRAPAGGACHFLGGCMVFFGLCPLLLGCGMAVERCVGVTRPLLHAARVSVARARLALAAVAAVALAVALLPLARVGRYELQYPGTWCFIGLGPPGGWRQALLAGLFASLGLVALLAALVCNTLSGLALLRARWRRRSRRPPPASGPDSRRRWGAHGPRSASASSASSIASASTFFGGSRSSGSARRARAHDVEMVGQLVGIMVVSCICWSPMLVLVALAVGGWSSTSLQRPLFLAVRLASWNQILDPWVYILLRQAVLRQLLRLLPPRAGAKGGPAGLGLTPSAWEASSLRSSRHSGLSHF
Sequence of Voltage-dependent T-type calcium channel subunit alpha-1I (Q9P0X4 whole entry): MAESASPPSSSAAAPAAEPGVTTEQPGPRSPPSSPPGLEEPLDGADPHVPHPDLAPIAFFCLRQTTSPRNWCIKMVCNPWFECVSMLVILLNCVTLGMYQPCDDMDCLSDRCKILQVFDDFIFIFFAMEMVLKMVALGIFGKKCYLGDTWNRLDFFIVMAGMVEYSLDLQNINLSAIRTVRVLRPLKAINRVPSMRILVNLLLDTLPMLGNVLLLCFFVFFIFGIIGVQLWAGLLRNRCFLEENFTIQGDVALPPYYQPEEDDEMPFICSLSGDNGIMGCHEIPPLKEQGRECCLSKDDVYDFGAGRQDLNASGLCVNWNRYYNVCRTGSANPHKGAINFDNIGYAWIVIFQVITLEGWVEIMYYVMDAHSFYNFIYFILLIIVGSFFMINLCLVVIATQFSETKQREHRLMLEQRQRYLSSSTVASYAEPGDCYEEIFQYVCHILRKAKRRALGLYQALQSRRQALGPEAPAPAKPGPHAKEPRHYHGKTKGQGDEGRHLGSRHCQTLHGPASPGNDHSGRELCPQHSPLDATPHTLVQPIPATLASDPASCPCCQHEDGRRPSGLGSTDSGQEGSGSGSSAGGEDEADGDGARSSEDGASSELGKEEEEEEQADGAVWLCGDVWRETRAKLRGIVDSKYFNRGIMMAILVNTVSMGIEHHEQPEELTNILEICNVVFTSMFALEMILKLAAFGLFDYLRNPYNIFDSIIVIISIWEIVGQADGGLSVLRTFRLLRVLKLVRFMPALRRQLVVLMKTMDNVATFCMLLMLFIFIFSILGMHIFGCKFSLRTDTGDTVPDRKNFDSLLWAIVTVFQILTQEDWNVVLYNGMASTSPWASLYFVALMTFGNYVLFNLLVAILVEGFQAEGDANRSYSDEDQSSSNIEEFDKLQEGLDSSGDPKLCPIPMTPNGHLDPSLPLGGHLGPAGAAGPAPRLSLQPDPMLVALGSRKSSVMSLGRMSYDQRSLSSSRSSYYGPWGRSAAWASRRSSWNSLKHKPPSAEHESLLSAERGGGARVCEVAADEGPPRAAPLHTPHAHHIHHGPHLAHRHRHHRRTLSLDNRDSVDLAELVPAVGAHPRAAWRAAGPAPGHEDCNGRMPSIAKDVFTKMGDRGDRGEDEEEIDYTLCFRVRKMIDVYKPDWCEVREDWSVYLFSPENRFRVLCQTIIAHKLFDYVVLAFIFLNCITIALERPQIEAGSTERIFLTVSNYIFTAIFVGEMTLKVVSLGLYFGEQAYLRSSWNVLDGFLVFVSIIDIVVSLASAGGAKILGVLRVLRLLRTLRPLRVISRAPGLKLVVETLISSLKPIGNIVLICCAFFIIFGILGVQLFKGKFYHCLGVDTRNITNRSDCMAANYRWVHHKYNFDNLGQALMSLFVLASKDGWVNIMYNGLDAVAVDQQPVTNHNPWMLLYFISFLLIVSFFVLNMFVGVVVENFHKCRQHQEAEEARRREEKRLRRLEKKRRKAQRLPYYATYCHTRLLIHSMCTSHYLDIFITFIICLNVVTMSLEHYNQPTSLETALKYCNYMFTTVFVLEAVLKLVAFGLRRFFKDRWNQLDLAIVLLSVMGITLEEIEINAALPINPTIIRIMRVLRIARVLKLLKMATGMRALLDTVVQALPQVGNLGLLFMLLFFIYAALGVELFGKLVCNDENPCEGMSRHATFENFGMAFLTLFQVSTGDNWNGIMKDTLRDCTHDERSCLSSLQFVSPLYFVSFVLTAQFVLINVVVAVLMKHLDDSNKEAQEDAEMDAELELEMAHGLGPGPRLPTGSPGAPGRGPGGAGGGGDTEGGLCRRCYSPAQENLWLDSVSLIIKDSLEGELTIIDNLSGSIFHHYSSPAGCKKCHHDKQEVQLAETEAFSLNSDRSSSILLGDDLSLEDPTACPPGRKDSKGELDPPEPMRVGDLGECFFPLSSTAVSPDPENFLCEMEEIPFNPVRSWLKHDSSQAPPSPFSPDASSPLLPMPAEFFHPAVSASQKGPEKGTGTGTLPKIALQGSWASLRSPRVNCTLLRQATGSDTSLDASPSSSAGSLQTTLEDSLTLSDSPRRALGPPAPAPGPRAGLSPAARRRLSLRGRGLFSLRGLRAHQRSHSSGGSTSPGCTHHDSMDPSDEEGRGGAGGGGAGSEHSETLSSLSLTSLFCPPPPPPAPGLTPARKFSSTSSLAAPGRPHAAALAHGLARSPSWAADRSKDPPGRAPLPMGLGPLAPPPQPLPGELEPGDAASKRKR
Sequence of Tyrosine-protein kinase ABL1 (P00519 whole entry): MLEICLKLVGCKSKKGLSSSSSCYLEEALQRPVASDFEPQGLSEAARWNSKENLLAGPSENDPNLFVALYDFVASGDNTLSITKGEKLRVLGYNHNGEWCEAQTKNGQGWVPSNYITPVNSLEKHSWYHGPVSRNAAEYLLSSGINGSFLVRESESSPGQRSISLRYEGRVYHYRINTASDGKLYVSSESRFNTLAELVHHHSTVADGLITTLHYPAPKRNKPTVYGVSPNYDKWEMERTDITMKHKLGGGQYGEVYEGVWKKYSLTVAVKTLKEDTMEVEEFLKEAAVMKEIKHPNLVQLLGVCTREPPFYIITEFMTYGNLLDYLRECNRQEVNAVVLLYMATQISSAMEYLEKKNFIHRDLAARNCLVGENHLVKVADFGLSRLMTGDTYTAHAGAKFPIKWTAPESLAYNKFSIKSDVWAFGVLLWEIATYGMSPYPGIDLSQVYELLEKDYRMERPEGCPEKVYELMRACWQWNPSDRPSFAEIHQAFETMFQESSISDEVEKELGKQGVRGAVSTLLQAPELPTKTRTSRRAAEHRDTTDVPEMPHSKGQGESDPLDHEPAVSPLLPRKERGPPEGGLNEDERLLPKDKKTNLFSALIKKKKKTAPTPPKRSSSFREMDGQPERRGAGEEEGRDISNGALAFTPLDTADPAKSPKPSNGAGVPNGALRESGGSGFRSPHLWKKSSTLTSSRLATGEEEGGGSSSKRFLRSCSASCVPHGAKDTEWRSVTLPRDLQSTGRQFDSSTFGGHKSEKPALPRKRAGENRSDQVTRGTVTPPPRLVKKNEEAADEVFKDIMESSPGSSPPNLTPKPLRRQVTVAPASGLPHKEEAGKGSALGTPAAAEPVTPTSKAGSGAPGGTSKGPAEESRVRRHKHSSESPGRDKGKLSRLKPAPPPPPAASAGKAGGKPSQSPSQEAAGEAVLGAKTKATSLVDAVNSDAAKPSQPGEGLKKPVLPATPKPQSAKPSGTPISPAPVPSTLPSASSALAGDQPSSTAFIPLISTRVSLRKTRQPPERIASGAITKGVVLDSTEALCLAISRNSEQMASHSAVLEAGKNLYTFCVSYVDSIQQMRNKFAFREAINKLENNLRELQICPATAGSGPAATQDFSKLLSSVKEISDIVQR
Sequence of Retinoic acid receptor beta (P10826 whole entry): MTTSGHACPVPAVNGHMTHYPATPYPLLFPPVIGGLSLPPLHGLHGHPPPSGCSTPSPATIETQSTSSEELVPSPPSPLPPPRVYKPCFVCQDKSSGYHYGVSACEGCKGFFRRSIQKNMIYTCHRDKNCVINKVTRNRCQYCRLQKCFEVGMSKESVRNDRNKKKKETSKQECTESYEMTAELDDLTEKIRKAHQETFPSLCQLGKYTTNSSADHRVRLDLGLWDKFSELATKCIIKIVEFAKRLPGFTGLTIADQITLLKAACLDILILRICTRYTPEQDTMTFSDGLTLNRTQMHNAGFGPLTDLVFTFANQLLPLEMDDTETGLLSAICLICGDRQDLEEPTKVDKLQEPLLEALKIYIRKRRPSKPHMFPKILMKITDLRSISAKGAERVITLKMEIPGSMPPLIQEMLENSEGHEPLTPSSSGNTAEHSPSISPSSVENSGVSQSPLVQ

`CCNCc1ccc(NC(=O)c2cc(C)n(Cc3cc(Cl)ccc3OCc3ccccc3)n2)cc1` showed a solubility thermodynamic (physchem) of 690 µg/mL and a pIC50 [1] of 7.
Molecule `CCc1cc(C(=O)N2Cc3ccccc3C2)c(O)cc1O` has a Kd (Heat shock protein HSP90) of 0.54 nM and an IC50 (HCT-116) of 31 nM.
Molecule `Clc1ccc(C(Cl)Cn2ncc3c(NCc4ccncc4)ncnc32)cc1` (stereo unspecified) has an IC50 [2] of 56400 nM, a Papp [3] of 174 ×10⁻⁶ cm/s and a solubility thermodynamic (physchem) of 12.3 µg/mL. For the same molecule, the IC50 [4] was 56400 nM.
In the case of `CSc1nc(N)nc(-c2c(Cl)cc3c4c(cccc24)COC3)n1`, the IC50 (NCI-N87) is reported as 570 nM and the solubility thermodynamic (physchem) is reported as 29 µM.
For `CC(=O)N1CCN(C(=O)/C=C/c2ccc(Sc3ccc4[nH]ccc4c3)c(Cl)c2)CC1`, the solubility thermodynamic (physchem) was 0.8 µg/mL and the IC50 [5] was 20 nM.
`O=c1cc(-c2ccc(Cc3ccc(OC(F)(F)F)cc3)cc2)[nH]c2ccccc12` showed a solubility thermodynamic (physchem) of 30 µM and an IC50 (Plasmodium falciparum [6]) of 117 nM.
For `CC(=O)N1CCN(C(=O)/C=C/c2ccc(Sc3ccc4c(c3)OCCO4)c(Cl)c2)CC1`, the solubility thermodynamic (physchem) was 4.1 µg/mL and the IC50 [5] was 40 nM.
Work on `CN1CCc2c([N+](=O)[O-])cc3nc(O)c(O)nc3c2C1` yielded a solubility thermodynamic (physchem) of 8.6 µg/mL and an IC50 [7] of 63 nM.
Work on `CC1(C)C(N(O)C(=O)Nc2ccc(Cl)cc2)N(c2ccc(Cl)cc2)C(=O)N1CC(=O)N/N=C/C=C/c1ccc([N+](=O)[O-])o1` (stereo unspecified) yielded a solubility thermodynamic (physchem) of 0.032 µM and an EC50 (MIA PaCa-2) of 4100 nM.
`CCN1CCN(c2cc(F)c(NC(=O)N3CCc4c(-c5cnc(N)nc5)nc(N5CCOCC5)nc43)c(F)c2)CC1` showed a solubility thermodynamic (physchem) of 20 µg/mL and an IC50 [8] of 0.022 µg/mL (≈ 0.0388 µM).
In the case of `C[C@@H]1CN(Cc2ccccc2)c2cnccc2[C@H](C)N1C(=O)NCc1ccccc1`, the solubility thermodynamic (physchem) is reported as 27 µg/mL, the IC50 [9] is reported as 55 nM and the microsomal CLint at 1 µM [10] is reported as 56 µL/min/mg.
`C[C@@H]1CN(Cc2ccccc2)c2ccccc2[C@H](C)N1C(=O)NCc1ccccc1` gave a solubility thermodynamic (physchem) of 1 µg/mL, an IC50 [9] of 6 nM and a microsomal CLint at 1 µM [10] of over 1250 µL/min/mg.
In the case of `Cc1cc(C(=O)Nc2ccccc2)nn1Cc1cc(Cl)ccc1OCc1ccccc1`, the pIC50 [1] is reported as 7.4.
With `Fc1ccc(CNc2ncnc3c2cnn3CC(Cl)c2ccc(Cl)cc2)cc1` (stereo unspecified) the IC50 [2] was 8100 nM, the Papp [3] was 322 ×10⁻⁶ cm/s and the solubility thermodynamic (physchem) was 0.04 µg/mL. For the same molecule, the IC50 [4] was 8100 nM.
Molecule `O=C1c2c(Cl)c(Cl)c(Cl)c(Cl)c2C(=O)N1c1ccccc1/C=C\c1ccccc1` has a solubility thermodynamic (physchem) of 0.0036 µg/mL and an EC50 [11] of 300 nM.
With `CC(C)c1cccc(C(C)C)c1NC(=O)CCCCCCCCSc1nc2ccccc2o1` the Therm_solubility [12] was 0.03 µg/mL and the IC50 [13] was 4 nM.
For `CCCCCCCCc1ccc(-c2ccc(C(=O)O)cc2)cc1`, the EC50 [14] was 6900 nM and the solubility thermodynamic (physchem) was 1 µg/mL.
Work on `CC(C)c1cccc(C(C)C)c1NC(=O)CN1CCN(CCSc2nc3ccccc3o2)CC1` yielded a solubility thermodynamic (physchem) of 19000 µg/mL and an IC50 [13] of 84 nM.
With `COc1ccc2c(=O)cc(-c3cnn(Cc4ccc(OC(F)(F)F)cc4)c3)[nH]c2c1` the solubility thermodynamic (physchem) was 0.3 µM and the IC50 (Plasmodium falciparum [6]) was 33 nM.
`CCCCOCCOc1nc(-c2ccc(C(=O)O)cc2)sc1C` gave an EC50 [14] of 8000 nM and a solubility thermodynamic (physchem) of 4800 µg/mL.
For `Cc1ccc(-c2cc(C(=O)Nc3cccnc3)c3cc(F)ccc3n2)cc1`, the solubility thermodynamic (physchem) was 39 µM and the EC50 (Plasmodium falciparum [15]) was 120 nM.
With `CCc1cc(C(=O)N2Cc3ccc(CN4CCN(C)CC4)cc3C2)c(O)cc1O` the solubility thermodynamic (physchem) was 30000 µg/mL, the Kd (Heat shock protein HSP90) was 0.71 nM and the IC50 (HCT-116) was 48 nM.
Molecule `CC(C(=O)NC1=CC(C2CC2)=CC1)c1ccc(N2CCCC2=O)cc1` (stereo unspecified) has a solubility thermodynamic (physchem) of 250 µM and an IC50 (CDK2/Cyclin A2) of 37 nM.
Molecule `O=C(Cc1ccc2ccccc2c1)NC1=CC(C2CC2)=CC1` has a solubility thermodynamic (physchem) of 22 µM and an IC50 (CDK2/Cyclin A2) of 37 nM.
Molecule `CCc1cnc(N2CCC(n3ncc4ccc(-c5ccc(S(C)(=O)=O)cc5F)nc43)CC2)cn1` has a solubility thermodynamic (physchem) of 0.71 µM and an EC50 [16] of 4 nM.
